Laboratory results taken from patent US20120165319A1, “INHIBITORS OF INTERLEUKIN-1 BETA CONVERTING ENZYME” (VERTEX PHARMACEUTICALS INCORPORATED, priority 1995, published 2012).
Read-outs that look alike come from different tables or passages of the source.

Tests used:
IL-1β, human whole blood = assay: Whole blood assay for IL-1β production; type: cell-based; conditions: read-out: Whole human blood IC50
Summary of the method: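 Human whole blood collected on Na2EDTA was treated with serially diluted compound in saline and then stimulated with LPS at 5.0 ng/ml final, for 16-18 h at 30 °C, in duplicate or triplicate. Plasma IL-1β was measured by ELISA at 1:200 dilution.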

ICE = target: T1, ICE (Homo sapiens, UniProt P29466); assay: Enzyme assay with UV-visible substrate (visible ICE assay, Succinyl-Tyr-Val-Ala-Asp-pNitroanilide); type: biochemical
T1 sequence (P29466 120-297 limits assumed): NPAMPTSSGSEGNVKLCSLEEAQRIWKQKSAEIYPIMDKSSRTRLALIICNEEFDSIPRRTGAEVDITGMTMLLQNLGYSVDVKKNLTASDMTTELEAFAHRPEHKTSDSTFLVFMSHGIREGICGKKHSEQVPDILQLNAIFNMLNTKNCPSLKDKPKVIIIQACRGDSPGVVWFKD
T1 sequence (P29466 317-404 limits assumed): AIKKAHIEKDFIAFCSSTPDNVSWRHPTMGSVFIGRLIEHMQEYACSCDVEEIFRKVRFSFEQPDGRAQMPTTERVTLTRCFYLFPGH
Summary of the method: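 ICE preincubated with inhibitor in DMSO for 15 min at room temperature, then Suc-Tyr-Val-Ala-Asp-pNA added. pNA release read at 405-603 nm for 20 min at 37 °C, rate from linear fit in mOD/min. Ki and inhibition mode from fits of rates at varying inhibitor concentrations to standard kinetic equations.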

[1] = tested on: IL-1β, human peripheral blood mononuclear cells (PBMC); assay: PBMC cell assay: IL-1β assay with human PBMC or enriched adherent mononuclear cells, LPS-stimulated; type: cell-based
Summary of the method: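 Buffy-coat human PBMC at 6×10^6 cells/ml, or adherent monocytes enriched by 1 h adherence (2.5−3.0×10^5 cells/well), are given 5–6 compound dilutions bracketing the ICE Ki (final DMSO 0.1%) plus LPS at a final 5 ng/ml. They are incubated 16–18 hr at 37 °C, 5% CO2, and supernatant mature IL-1β is measured by ELISA, with duplicate cultures and duplicate ELISAs.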

[2] = Homo sapiens, * = values obtained upon reassay
[3] = Homo sapiens, PBMC, * = values obtained upon reassay
[4] = * = values obtained upon reassay

SMILES	IC50 (IL-1β, human whole blood; Homo sapiens, Table 17) [nM]	Ki (ICE; Table 17) [nM]	IC50 ([1]; Homo sapiens, PBMC, Table 17) [nM]	IC50 (IL-1β, human whole blood; [2]) [nM]	Ki (ICE; Table 5) [nM]	IC50 [1, 3] [nM]	IC50 (IL-1β, human whole blood; [4]) [nM]	IC50 [1, 4] [nM]
CC(=O)N1C[C@H](NC(=O)C(=O)c2c[nH]c3ccccc23)C(=O)N(CC(=O)N[C@H](C=O)CC(=O)O)c2ccccc21 [Compound 703]	20000	5	1400	–	–	–	–	–
CS(=O)(=O)c1ccc(C(=O)N[C@H]2CCC(=O)N3CCC[C@@H](C(=O)N[C@H](C=O)CC(=O)O)N3C2=O)cc1 [Compound 460]	–	–	–	2400	115	400	–	–
Nc1c(Cl)cc(C(=O)N[C@H]2CCC(=O)N3CCC[C@@H](C(=O)N[C@H](C=O)CC(=O)O)N3C2=O)cc1Cl [Compound 482]	–	–	–	380	< 0.2	340	260	–
COc1c(C)cc(C(=O)N[C@H]2CN(C(C)=O)c3ccccc3N(CC(=O)N[C@H](C=O)CC(=O)O)C2=O)cc1C [Compound 684, (3S)-3-[(3S)-2-Oxo-3-(3,5-dimethyl-4-methoxybenzoyl)amino-5-acetyl-2,3,4,5-tetrahydro-1H-1,5-benzodiazepine-1-acetylamino]-4-oxo-butyric acid]	2800	15	5000	–	–	–	–	–
COCC(=O)N1C[C@H](NC(=O)C(=O)c2ccccc2)C(=O)N(CC(=O)N[C@H](C=O)CC(=O)O)c2ccccc21 [Compound 642, (3S)-3-[(3S)-2-Oxo-3-benzoylformylamino-5-methoxyacetyl-2,3,4,5-tetrahydro-1H-1,5-benzodiazepine-1-acetylamino]-4-oxo-butyric acid]	2900	35	8000	–	–	–	–	–
COc1cccc(OC)c1C(=O)C(=O)N[C@H]1CN(C(C)=O)c2ccccc2N(CC(=O)N[C@H](C=O)CC(=O)O)C1=O [Compound 706]	5800	5	2400	–	–	–	–	–
COc1ccc(C(=O)N[C@H]2CN(C(=O)CO)c3ccccc3N(CC(=O)N[C@H](C=O)CC(=O)O)C2=O)cc1 [Compound 912]	3800	10	4200	–	–	–	–	–
CC(=O)Nc1c(Cl)cc(C(=O)N[C@H]2CN(C(=O)CO)c3ccccc3N(CC(=O)N[C@H](C=O)CC(=O)O)C2=O)cc1Cl [Compound 915]	1900	11.5	> 8000	–	–	–	–	–
Cc1ccc(Cl)cc1C(=O)N[C@H]1CCC(=O)N2CCC[C@@H](C(=O)N[C@H](C=O)CC(=O)O)N2C1=O [Compound 466]	–	–	–	600	0.8	1400	–	–
CC(C)(C)OC(=O)C[C@@H](C=NOCc1c(Cl)cccc1Cl)NC(=O)[C@@H]1CCCN2C(=O)CC[C@H](NC(=O)c3ccccc3)C(=O)N12 [Compound 307a, [3S(1S,9S)3-(9-Benzoylamino-6,10-dioxo-1,2,3,4,7,8,9,10-octahydro-6H-pyridazino-[1,2-a][1,2]diazapine-1-carboxamido)-amino]-4-oxobutanoicacid t-butyl ester, O-(2,6-dichlorophenylmethyl)oxime]	–	–	–	–	55	–	16000	14500
CC(=O)N1C[C@H](NC(=O)OCc2ccccc2)C(=O)N(CC(=O)N[C@H](C=O)CC(=O)O)c2ccccc21 [Compound 633]	–	–	–	20000	92	5750	–	–
CC(=O)Nc1ccc(C(=O)N[C@H]2CN(C(=O)CO)c3ccccc3N(CC(=O)N[C@H](C=O)CC(=O)O)C2=O)cc1Cl [Compound 914]	2800	5.2	2600	–	–	–	–	–
Nc1ccc(C(=O)N[C@H]2CCC(=O)N3CCC[C@@H](C(=O)N[C@H](C=O)CC(=O)O)N3C2=O)cc1 [Compound 431]	–	–	–	8000	8	> 8000	–	–
COc1ccc(C(=O)N[C@H]2CCC(=O)N3CCC[C@@H](C(=O)N[C@H](C=O)CC(=O)O)N3C2=O)cc1F [Compound 493]	–	–	–	800	25	1200	850	–
COc1cccc(OC)c1C(=O)C(=O)N[C@H]1CN(C(=O)CO)c2ccccc2N(CC(=O)N[C@H](C=O)CC(=O)O)C1=O [Compound 678]	2200	5	2700	–	–	–	–	–
Cc1nc(-c2ccc(C(F)(F)F)cc2)sc1C(=O)N[C@H]1CCC(=O)N2CCC[C@@H](C(=O)N[C@H](C=O)CC(=O)O)N2C1=O [Compound 468]	–	–	–	2500	4.5	850	–	–
Cc1cc(C)c(C(=O)C(=O)NN2CCC(=O)N3CCC[C@@H](C(=O)N[C@H](C=O)CC(=O)O)N3C2=O)c(C)c1 [Compound 1117]	1300	35	1700	–	–	–	–	–
O=C[C@H](CC(=O)O)NC(=O)CN1C(=O)[C@@H](NC(=O)c2ccc3[nH]cnc3c2)CN(C(=O)CO)c2ccccc21 [Compound 920]	3000	16	2100	–	–	–	–	–
O=C[C@H](CC(=O)O)NC(=O)[C@@H]1CCCN2C(=O)CC[C@H](NC(=O)c3ccccc3Cl)C(=O)N12 [Compound 406]	–	–	–	2300	4	1650	–	–
COc1ccccc1C(=O)N[C@H]1CCC(=O)N2CCC[C@@H](C(=O)N[C@H](C=O)CC(=O)O)N2C1=O [Compound 405]	–	–	–	2100	6.5	1700	–	–
O=C[C@H](CC(=O)O)NC(=O)CN1C(=O)[C@@H](NC(=O)c2ccccc2)CN(C(=O)NCc2ccccc2)c2ccccc21 [Compound 605p, (3S)-3-[(3S)-2-Oxo-3-benzoylamino-5-benzylaminocarbonyl-2,3,4,5-tetrahydro-1H-1,5-benzodiazepin-1-acetylamino]-4-oxo-butyric acid]	–	–	–	> 20000	125	3200	–	–
Cc1c(O)cccc1C(=O)N[C@H]1CCC(=O)N2CCC[C@@H](C(=O)N[C@H](C=O)CC(=O)O)N2C1=O [Compound 476]	–	–	–	2500	7	1600	–	–
O=C[C@H](CC(=O)O)NC(=O)[C@@H]1CCCN2C(=O)CCN(NC(=O)CCc3ccccc3)C(=O)N12 [Compound 1105]	3000	250	3500	–	–	–	–	–
O=C[C@H](CC(=O)O)NC(=O)[C@@H]1CCCN2C(=O)CC[C@H](NC(=O)c3ccc(Oc4ccccc4)cc3)C(=O)N12 [Compound 443]	–	–	–	1500	3.6	2800	–	–
O=C[C@H](CC(=O)O)NC(=O)[C@@H]1CCCN2C(=O)CC[C@H](NC(=O)c3cc(Cl)cc(Cl)c3)C(=O)N12 [Compound 214j, [3S(1S,9S)]3-(9-(3,5-Dichlorobenzoyl)amino-6,10-dioxo-1,2,3,4,7,8,9,10-octahydro-6H-pyridazino[1,2-a][1,2]diazepine-1-carboxamido)-4-oxobutanoic acid]	6000	4.2	2500	–	–	–	–	–
O=C[C@H](CC(=O)O)NC(=O)[C@@H]1CCCN2C(=O)CC[C@H](NC(=O)OCc3ccccc3)C(=O)N12 [Compound 496]	–	–	–	6000	16	1550	–	1600
CN(C)c1ccc(C(=O)N[C@H]2CCC(=O)N3CCC[C@@H](C(=O)N[C@H](C=O)CC(=O)O)N3C2=O)c2ccccc12 [Compound 441]	–	–	–	4500	1	2500	–	–
COc1c(Cl)cc(C(=O)NN2CCC(=O)N3CCC[C@@H](C(=O)N[C@H](C=O)CC(=O)O)N3C2=O)cc1Cl [Compound 1125]	9000	55	2300	–	–	–	–	–
CC(=O)Nc1ccc(C(=O)N[C@H]2CN(C(=O)CO)c3ccccc3N(CC(=O)N[C@H](C=O)CC(=O)O)C2=O)cc1 [Compound 911]	1900	9	3500	–	–	–	–	–
